According to publication PMC9231138, “Dihydrotanshinone I Enhances Cell Adhesion and Inhibits Cell Migration in Osteosarcoma U−2 OS Cells through CD44 and Chemokine Signaling” (Molecules, 2022):

Assays:
[1] = test system: NRK−49F cells; experiment: MTT cell proliferation assay, NRK−49F cells; format: cell-based, rat; settings: Rattus norvegicus, 24 h, read-out: IC50 NRK−49F cells (24 h)
Procedure: The effects of tanshinones (DS−1 to DS−5) on the proliferation of U−2 OS cells, HeLa cells, and NRK−49F cells were measured by the classical MTT method with minor modifications as follows. Cells were seeded at 5000 per well in 96-well plates, with each group being repeated in 5 wells, and were incubated for 12 h. DS−1 to DS−5 were added at gradient concentrations, then incubated for 24 and 48 h, respectively. Then, 20 μL MTT solution (solved in PBS, 5 mg/mL) was added to every well, and the cells were further incubated at 37 °C for 4 h until a purple precipitate was visible. The plate was centrifuged at 1000 rpm for 1 min; the supernatant was suctioned, and 150 μL of DMSO was added per well; the plate was shaken on a shaker protected from light for 15 min. We placed the plate in an enzyme marker and measured the absorbance values at a 490 nm wavelength.

[2] = test system: CDK4; experiment: RT-PCR CDK4 mRNA in U−2 OS cells; format: cell-based, human; settings: 24 h
Procedure: (§1) Total RNA within cells was extracted by the RNAeasy™ Animal Long RNA Isolation Kit with Spin Column (Shanghai, Beyotime); the concentrations and OD260/OD280 and OD230/OD260 values were measured by NanoDrop. Five micrograms of RNA was used for reverse transcription; each sample was diluted to 16 μL, and 4 μL of synthesized premix solution (5×) was added, then the mixtures were placed in a 42 °C water bath for 10 min, then an 80 °C water bath for 10 min to deactivate reverse transcriptase. After reverse transcription, each sample was diluted to 140 μL. PCR amplification was carried out by the ABI700 real-time PCR system, and the amplification reaction was detected with a SYBR probe. After PCR, actin and GAPDH were used as internal references, and the relative standard curve method (2^−ΔΔcT) determined the relative expression of mRNA.

[3] = test system: cyclin E1; experiment: RT-PCR cyclin E1 mRNA in U−2 OS cells; format: cell-based, human; settings: 24 h
Procedure: as §1

[4] = test system: U−2 OS cells; experiment: Scratch motility (wound-healing) assay; format: cell-based, human
Procedure: U-2 OS cells were seeded in 6-well plates at a density of 200,000 per well and cultured to 90% abundance after 18 h. The cells were scratched with a 10 μL pipette tip along the ruler; each well was scratched 3 times in parallel, and the line was drawn perpendicular to the scratch on the back for fixed-point photography. We suctioned the previous medium and washed the cells with a PBS reagent. Then, we added 2% FBS medium with DS−1 and cultured the cells at 37 °C for different times. After 0, 24, and 48 h, the plate was taken out, and the scratches were observed and photographed by the inverted microscope, while the distance of scratches at different times was measured.
Cell mobility = (pre-migration distance – post-migration distance)/pre-migration distance × 100%. The cell migration rate of blank control was set as 100%, and the relative cell migration rate = cell migration rate/cell migration rate of control group × 100%

[5] = test system: AKT; experiment: Western blot AKT; format: cell-based, human; settings: DS−1 2.5, 5.0, and 7.5 µM, 24 h
Procedure: Sample preparation: U−2 OS cells seeded in 10 cm Petri dishes were collected and washed with ice-cold PBS and RIPA lysis buffer with PMAF; phosphatase inhibitor was added, and the tubes were placed on ice for 30 min and vortexed for 30 s at intervals of 10 min. The samples were centrifuged at 12,000 g at 4 °C for 15 min, and the supernatants were collected in new centrifuge tubes. The protein samples were placed on ice, and the concentration of each protein sample was measured by the BCA kit (Thermo). The protein concentration was adjusted to the same by milli Q ultrapure water.
Loading and running the gel: Equal amounts of protein were loaded into the wells of the 10% SDS-PAGE gel, along with molecular weight markers, and 15 μg of total protein from the cell lysate was loaded. We then ran the gel for 45 min at 200 V.
Transferring the protein: We prepared the transfer stack as follows: negative plate, sponge, filter paper, gel, PVDF membrane, filter paper, sponge, and positive plate. The transfer was for 90 min at 200 mA.
(§2) Antibody staining: We blocked the membrane for 1 h at room temperature using 5% blocking solution, then incubated the membrane with appropriate dilutions of the primary antibody in the blocking solution overnight at 4 °C. […] Images were acquired using darkroom development techniques for chemiluminescence and analyzed by Image J.

[6] = test system: FOXO1; experiment: FOXO1 by immunofluorescence and immunoblotting; format: cell-based, human; settings: DS−1 3.125, 6.25, and 12.5 μM
Procedure: Figure 3 DS−1 inhibited the expression of transcription factor FOXO1 in U−2 OS cells. (A) U−2 OS cells were treated with DS−1 at 0, 3.125, 6.25, and 12.5 μM, and the changes in FOXO1 were analyzed by immunofluorescent staining, followed by confocal microscopy imaging. (B) U−2OS cells were treated with DS−1 at 0, 3.125, 6.25, and 12.5 μM, and FOXO1 and pFOXO1 were analyzed by Western blot; the changes were presented in histograms (C,D). (E) U−2 OS cells were treated with DS−1 at 6.25 μM for 0, 12, 24, and 48 h, then FOXO1 was analyzed by Western blot, and the changes are presented in the histogram (F). (G) The pFOXO1/FOXO1 value is shown in the histogram. […]
Sample preparation: U−2 OS cells seeded in 10 cm Petri dishes were collected and washed with ice-cold PBS and RIPA lysis buffer with PMAF; phosphatase inhibitor was added, and the tubes were placed on ice for 30 min and vortexed for 30 s at intervals of 10 min. […] The protein samples were placed on ice, and the concentration of each protein sample was measured by the BCA kit (Thermo). […]
as §2

[7] = first of three DS−1 doses (2.5 µM per Fig. 5 legend)
[8] = second of three DS−1 doses (5.0 µM per Fig. 5 legend)
[9] = third of three DS−1 doses (7.5 µM per Fig. 5 legend)

Cc1cccc2c3c(ccc12)C1=C(C(=O)C3=O)[C@@H](C)CO1 [DS−1, 15,16-Dihydrotanshinone I]
IC50 [1]: 25 ± 1.98 µM | CDK4 mRNA, fold of the control group [2, 7]: 0.53 ± 0.06 fold | CDK4 mRNA, fold of the control group [2, 8]: 0.37 ± 0.02 fold | CDK4 mRNA, fold of the control group [2, 9]: 0.29 ± 0.05 fold | cyclin E1 mRNA, fold of the control group [3, 7]: 0.52 ± 0.04 fold | cyclin E1 mRNA, fold of the control group [3, 8]: 0.48 ± 0.08 fold | cyclin E1 mRNA, fold of the control group [3, 9]: 0.36 ± 0.04 fold | relative mobility compared to control cells ([4]; DS−1 2.5 µM, 24 h): 24.8 ± 9.9% | relative mobility compared to control cells ([4]; DS−1 2.5 μM, 48 h): 18.1 ± 6.6% | relative mobility compared to control cells ([4]; DS−1 5.0 µM, 24 h): 17.5 ± 6.6% | relative mobility compared to control cells ([4]; DS−1 5.0 μM, 48 h): 7.3 ± 7.1% | relative mobility compared to control cells ([4]; DS−1 7.5 µM, 24 h): 6.6 ± 0.8% | relative mobility compared to control cells ([4]; DS−1 7.5 μM, 48 h): 4.3 ± 1.8% | expression of AKT [5]: no significant change | expression of FOXO1 [6]: reduced
